Data: patent US12662491B2 (Redona Therapeutics, Inc., priority 2020, dated 2026)

The compounds below were run against T1, Zcchc11 enzyme (Homo sapiens, UniProt Q5TAX3) (assay: TUTase assay (Zcchc11 assay, Lin28a-dependent polyuridylation of pre-let-7)). Settings: LIN28A 10 nM, Zcchc11 0.2 nM, 5′-fluorescein pre-let-7 miRNA 2 nM, UTP 5 uM, room temperature, 30 minutes pre-incubation; read-out: Potency Lin28a-dep Z11 IC50.
T1 construct: made in house; host or cells: HEK293 cells (Zcchc11); E. coli Rosetta II (LIN28A)
T1 sequence (Q5TAX3 212-1420): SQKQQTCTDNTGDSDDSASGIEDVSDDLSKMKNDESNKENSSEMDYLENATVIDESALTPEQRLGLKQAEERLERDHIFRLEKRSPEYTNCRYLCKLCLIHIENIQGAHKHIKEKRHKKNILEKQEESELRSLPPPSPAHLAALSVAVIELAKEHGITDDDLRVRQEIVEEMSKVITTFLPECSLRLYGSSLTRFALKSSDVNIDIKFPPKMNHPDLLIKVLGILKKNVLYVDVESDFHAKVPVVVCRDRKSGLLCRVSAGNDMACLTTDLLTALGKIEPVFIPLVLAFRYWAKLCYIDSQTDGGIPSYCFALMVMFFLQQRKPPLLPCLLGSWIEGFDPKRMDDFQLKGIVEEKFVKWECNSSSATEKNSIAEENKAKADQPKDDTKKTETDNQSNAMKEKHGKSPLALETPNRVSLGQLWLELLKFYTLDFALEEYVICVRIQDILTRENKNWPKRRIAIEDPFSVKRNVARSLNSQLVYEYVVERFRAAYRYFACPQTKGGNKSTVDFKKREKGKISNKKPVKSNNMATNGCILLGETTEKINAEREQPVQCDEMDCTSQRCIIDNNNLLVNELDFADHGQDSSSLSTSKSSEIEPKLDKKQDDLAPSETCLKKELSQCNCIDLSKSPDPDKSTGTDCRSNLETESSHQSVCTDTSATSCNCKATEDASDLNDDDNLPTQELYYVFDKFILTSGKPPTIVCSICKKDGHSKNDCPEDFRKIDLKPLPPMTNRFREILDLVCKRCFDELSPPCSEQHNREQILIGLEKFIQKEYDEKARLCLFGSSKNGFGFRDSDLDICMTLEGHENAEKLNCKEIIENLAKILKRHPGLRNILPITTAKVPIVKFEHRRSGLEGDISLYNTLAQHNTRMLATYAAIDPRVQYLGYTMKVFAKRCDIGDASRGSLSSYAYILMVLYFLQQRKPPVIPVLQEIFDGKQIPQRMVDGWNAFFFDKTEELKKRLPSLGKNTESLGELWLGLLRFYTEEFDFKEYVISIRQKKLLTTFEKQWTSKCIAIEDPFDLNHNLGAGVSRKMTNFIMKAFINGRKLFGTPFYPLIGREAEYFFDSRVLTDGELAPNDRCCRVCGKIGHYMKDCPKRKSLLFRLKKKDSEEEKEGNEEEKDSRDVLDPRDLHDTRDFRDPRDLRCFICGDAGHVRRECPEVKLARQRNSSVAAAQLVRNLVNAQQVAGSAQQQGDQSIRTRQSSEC
Assay type: biochemical
Protocol: The purpose of the Zcchc11 assay is to determine compound potency against Zcchc11 enzyme through the measurement of IC50. Compound inhibition is measured as a function of polyuridine tails added to RNA substrates in the presence of active TUTase, UTP, and inhibitor. The Zcchc11 assay was done in a black, non-binding, 384 well plate (Corning #3575). All steps were performed at room temperature. For a typical assay, a 29 ul aliquot of assay buffer (50 mM HEPES pH 7.3, 150 mM KCl, 5 mM MgCl2, 10 mM DTT, 0.01% Triton X-100, 40 U/ml RNAsin (Promega)) containing LIN28A protein (final concentration: 10 nM) is added to each well. Next, 1 ul of compound in 100% DMSO is transferred from a compound dilution plate in which the compound is serially diluted. Next, 10 ul of a 5× mix of Zcchc11 and RNA substrate (5′-fluorescein labeled pre-let-7 miRNA (Dharmacon)) is added (final concentrations: 0.2 nM and 2 nM, respectively). The plate is placed on a plate shaker for 30 seconds to produce mixing, then incubated for 30 minutes. Next, 10 ul of a 5× mix of UTP and the quenching probe (3′-rhodamine labeled A20, polyadenosine nucleotide, (IDT)) is added (final concentrations: 5 uM and 4 nM, respectively). The plate is immediately placed in a Biotek Cytation 5 plate reader, and the time-dependent decrease in fluorescein fluorescence resulting from annealing of the A20 probe to polyuridine tails is recorded, using the kinetics mode of the reader. Reaction rates are obtained using linear fits to the early portion of progress curves. IC50 values are calculated using a four parameter fit with 100% enzyme activity determined from the DMSO control and 0% activity from control samples lacking UTP.
The LIN28A protein was expressed in and purified from E. coli, strain Rosetta II (Novagen). The entire coding sequence of the human, wild-type protein was cloned into expression vector pMAL (NEB), down-stream from a maltose-binding protein tag. The linker sequence contained a TEV protease cleavage site. The protein was purified from bacterial extracts using an MBP-Trap column (GE Healthcare Life Sciences), followed by tag cleavage and removal of the tag by ion-exchange chromatography. When necessary, contaminating bacterial RNA was removed using the procedure describe by Faehnle C R. et al. (2017) Multi-domain utilization by TUT4 and TUT7 in control of let-7 biogenesis. Nat Struct Mol Biol, 24:658-665.
The Zcchc11 protein was expressed in and purified from HEK293 cells. A truncated protein comprising residues 212-1420 of the human sequence was cloned into expression vector pTT5 (Viva Biotech) down-stream from a maltose-binding protein tag. The linker sequence contained a TEV protease cleavage site, and a FLAG tag was added to the carboxyl terminus of the protein. The protein was purified from cell extracts using an MBP-Trap column (GE Healthcare Life Sciences), followed by tag cleavage and further enrichment of the full length construct using anti-FLAG affinity media (Sigma Aldrich).
“+” represents an IC50 value that is greater than 50 μM; “++” represents an IC50 value that is greater than 10 μM and equal to or less than 50 μM; “+++” represents an IC50 value that is greater than 1 μM and equal to or less than 10 μM; and “++++” represents an IC50 value that is equal to or less than 1 μM.

IC50 [nM] | SMILES
≤ 1000 | COc1ccc(Cl)c(OC[C@H]2CC(c3cn[nH]c3)CN2c2cc3c(cc2F)c(=O)c(C(=O)O)cn3-c2ccc(N3CC(N(C)C)C3)nc2)n1 (stereo partly drawn) [Example 71, 7-[(2R)-2-[[(3-chloro-6-methoxypyridin-2-yl)oxy]methyl]-4-(1H-pyrazol-4-yl)pyrrolidin-1-yl]-1-[6-[3-(dimethylamino)azetidin-1-yl]pyridin-3-yl]-6-fluoro-4-oxoquinoline-3-carboxylic acid]
≤ 1000 | COc1ccc(Cl)c(OC[C@H]2C[C@H]3C[C@H]3N2c2cc3c(cc2F)c(=O)c(C(=O)O)cn3-c2ccc(N3CC(N(C)C)C3)nc2)n1 [Example 68, 7-((1R,3R,5R)-3-(((3-chloro-6-methoxypyridin-2-yl)oxy)methyl)-2-azabicyclo[3.1.0]hexan-2-yl)-1-(6-(3-(dimethylamino)azetidin-1-yl)pyridin-3-yl)-6-fluoro-4-oxo-1,4-dihydroquinoline-3-carboxylic acid]
≤ 1000 | O=C(O)c1cn(-c2cnc3c(n2)COC3)c2cc(N3CCC[C@@H]3COc3ncccc3Cl)c(Cl)cc2c1=O [Example 46, 6-chloro-7-[(2R)-2-[[(3-chloropyridin-2-yl)oxy]methyl]pyrrolidin-1-yl]-1-[5H,7H-furo[3,4-b]pyrazin-2-yl]-4-oxoquinoline-3-carboxylic acid]

Same assay, conditions: Lin28a-dependent Zcchc11 (Z11) TUTase activity; read-out: Potency Lin28a-dep Z11 IC50

IC50 [nM] | SMILES
≤ 1000 | O=C(O)c1cn(-c2ccc(CO)cc2)c2cc(N3CCC[C@@H]3COc3ccccn3)c(F)cc2c1=O [Compound 162, (R)-6-fluoro-1-(4-(hydroxy-methyl)phenyl)-4-oxo-7-(2-((pyridin-2-yloxy)methyl)pyrrolidin-1-yl)-1,4-dihydro-quinoline-3-carboxylic acid]
≤ 1000 | COc1ccc(Cl)c(OC[C@H]2CC(C3CCC3)CN2c2cc3c(cc2Cl)c(=O)c(C(=O)O)cn3-c2ccc(N3CC(N(C)C)C3)nc2)n1 (mixture of isomers) [Compound 203, rac-6-chloro-7-((2R)-2-(((3-chloro-6-methoxy-pyridin-2-yl)oxy)methyl)-4-cyclobutyl-pyrrolidin-1-yl)-1-(6-(3-(dimethyl-amino)azetidin-1-yl)pyridin-3-yl)-4-oxo-1,4-dihydro-quinoline-3-carboxylic acid]
≤ 1000 | CN(C)c1ccc(Cl)c(OC[C@H]2C[C@H]3C[C@H]3N2c2cc3c(cc2F)c(=O)c(C(=O)O)cn3-c2ccc(N3CC(N(C)C)C3)nc2)n1 [Compound 338, 7-[(1R,3R,5R)-3-({[3-chloro-6-(dimethyl-amino)pyridin-2-yl]oxy}methyl)-2-azabicyclo [3.1.0]hexan-2-yl]-1-{6-[3-(dimethyl-amino)azetidin-1-yl]pyridin-3-yl}-6-fluoro-4-oxoquinoline-3-carboxylic acid]
≤ 1000 | COc1ccc(COc2ccc(-n3cc(C(=O)O)c(=O)c4cc(F)c(N5CCC[C@@H]5COc5cccnn5)cc43)c(F)c2)cc1 [Compound 138, (R)-6-fluoro-1-(2-fluoro-4-((4-methoxy-benzyl)oxy)phenyl)-4-oxo-7-(2-((pyridazin-3-yloxy)methyl)pyrrolidin-1-yl)-1,4-dihydro-quinoline-3-carboxylic acid]

Same assay, conditions: Lin28a-dependent Zcchc11 (Z11) TUTase assay; read-out: Potency Lin28a-dep Z11 IC50

SMILES | IC50 [nM]
COCCOc1cnc(-n2cc(C(=O)O)c(=O)c3cc(Cl)c(N4CCC[C@@H]4COc4ncccc4Cl)cc32)cn1 [Example 419, (R)-6-chloro-7-(2-(((3-chloropyridin-2-yl)oxy)methyl)pyrrolidin-1-yl)-1-(5-(2-methoxy-ethoxy)pyrazin-2-yl)-4-oxo-1,4-dihydroquinoline-3-carboxylic acid] | ≤ 1000
Cc1cccnc1OC[C@H]1CCCN1c1cc2c(cc1F)c(=O)c(C(=O)O)cn2-c1ccc2[nH]ccc2c1 [Example 442, (R)-6-fluoro-1-(1H-indol-5-yl)-7-(2-(((3-methyl-pyridin-2-yl)oxy)methyl)pyrrolidin-1-yl)-4-oxo-1,4-dihydroquinoline-3-carboxylic acid] | ≤ 1000

The next lines start with the values.

IC50 [nM] | SMILES
≤ 1000 | Cc1cccnc1OC[C@H]1CCCN1c1cc2c(cc1Cl)c(=O)c(C(=O)O)cn2C1(C)CCCC1 [Example 457, (R)-6-chloro-1-(1-methylcyclo-pentyl)-7-(2-(((3-methylpyridin-2-yl)oxy)methyl)pyrrolidin-1-yl)-4-oxo-1,4-dihydroquinoline-3-carboxylic acid]
≤ 1000 | COc1ccnc(OC[C@H]2C[C@H]3C[C@H]3N2c2nc3c(cc2F)c(=O)c(C(=O)O)cn3-c2ccc(N3CC(N(C)C)C3)nc2)c1Cl [Example 678, 7-((1R,3R,5R)-3-(((3-chloro-4-methoxypyridin-2-yl)oxy)methyl)-2-azabicyclo[3.1.0]hexan-2-yl)-1-(6-(3-(dimethylamino)azetidin-1-yl)pyridin-3-yl)-6-fluoro-4-oxo-1,4-dihydro-1,8-naphthyridine-3-carboxylic acid]
≤ 1000 | COc1ccc(Cl)c(OC[C@H]2CC(C)(C)CN2c2cc3c(cc2Cl)c(=O)c(C(=O)O)cn3-c2ccc(N)nc2)n1 [Example 649, (R)-1-(6-aminopyridin-3-yl)-6-chloro-7-(2-(((3-chloro-6-methoxypyridin-2-yl)oxy)methyl)-4,4-dimethylpyrrolidin-1-yl)-4-oxo-1,4-dihydroquinoline-3-carboxylic acid]
≤ 1000 | Cc1cc2c(=O)c(C(=O)O)cn(-c3ccc(N4CC(N(C)C)C4)nc3)c2cc1N1CCC[C@@H]1COc1ncccc1Cl [Example 533, (R)-7-(2-(((3-chloropyridin-2-yl)oxy)methyl)pyrrolidin-1-yl)-1-(6-(3-(dimethylamino)azetidin-1-yl)pyridin-3-yl)-6-methyl-4-oxo-1,4-dihydroquinoline-3-carboxylic acid]
≤ 1000 | Cn1cc(Cn2cc(C(=O)O)c(=O)c3cc(Cl)c(N4CCC[C@@H]4COc4ncccc4Cl)cc32)cn1 [Example 573, (R)-6-chloro-7-(2-(((3-chloropyridin-2-yl)oxy)methyl)pyrrolidin-1-yl)-1-((1-methyl-1H-pyrazol-4-yl)methyl)-4-oxo-1,4-dihydroquinoline-3-carboxylic acid]
